Test results as given in patent publication US5436254A, “Carbostyril derivatives” (Otsuka Pharmaceutical Company, Ltd., priority 1989, dated 1995).

Target: V1 receptor (Rattus norvegicus, UniProt P30560)
Test: biochemical
Assay type: binding
Conditions: not given

Chain of V1 receptor (P30560 whole entry): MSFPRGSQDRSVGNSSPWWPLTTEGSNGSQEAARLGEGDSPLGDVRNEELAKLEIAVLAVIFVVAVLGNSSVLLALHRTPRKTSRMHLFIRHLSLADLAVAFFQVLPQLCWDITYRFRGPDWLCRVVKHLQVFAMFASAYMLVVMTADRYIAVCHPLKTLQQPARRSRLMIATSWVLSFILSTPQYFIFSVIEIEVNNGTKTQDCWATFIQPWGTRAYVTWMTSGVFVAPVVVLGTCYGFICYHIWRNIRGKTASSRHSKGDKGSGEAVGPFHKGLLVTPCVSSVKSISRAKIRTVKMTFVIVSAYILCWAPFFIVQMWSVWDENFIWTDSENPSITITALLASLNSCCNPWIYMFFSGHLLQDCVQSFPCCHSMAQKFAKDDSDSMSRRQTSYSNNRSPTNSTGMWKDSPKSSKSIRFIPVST

`CCOc1ccc(C(=O)N2CCC(N3C(=O)CCc4c(O)cccc43)CC2)c(OC)c1` [Example 308, 5-Hydroxy-1-[1-(2-methoxy-4-ethoxybenzoyl)-4-piperidinyl}-3,4-dihydrocarbostyril] and `CCOc1ccc(C(=O)N2CCC(N3C(=O)CCc4c(F)cccc43)CC2)c(OC)c1` [Example 306, 5-Fluoro-1-[1-(2-methoxy-4-ethoxybenzoyl)-4-piperidinyl}-3,4-dihydrocarbostyril] are within 1.5-fold of each other in IC50: 95 nM for the first, 84 nM for the second.

`O=C(CCCCCOc1ccc(C(=O)N2CCC(N3C(=O)CCc4ccccc43)CC2)cc1)N1CCNCC1` [Example 270, 1-{1-(4-[5-(1-Piperazinylcarbonyl)pentyloxy]benzoyl)-4-piperidinyl}-3,4-dihydrocarbostyril] and `NC(=O)C1CCN(C(=O)CCCCCOc2ccc(C(=O)N3CCC(N4C(=O)CCc5ccccc54)CC3)cc2)CC1` [Example 275, 1-{1-(4-[5-(4-Carbamoyl-1-piperidinylcarbonyl)pentyloxy]benzoyl)-4-piperidinyl}-3,4-dihydrocarbostyril] are within 1.5-fold of each other in IC50: 44 nM for the first, 46 nM for the second.

Going from `NCC(O)CCCCOc1ccc(C(=O)N2CCC(N3C(=O)CCc4ccccc43)CC2)cc1` (stereo not drawn) [Example 171, 1-{1-[4-(5-Hydroxy-6-aminohexyloxy)benzoyl]-4-piperidinyl}-3,4-dihydrocarbostyril] to `CC(C)NCC(O)CCCCOc1ccc(C(=O)N2CCC(N3C(=O)CCc4ccccc43)CC2)cc1` (stereo not drawn) [Example 217, 1-{1-[4-(5-Hydroxy-6-isopropylaminohexyloxy)benzoyl]-4-piperidinyl}-3,4-dihydrocarbostyril], the IC50 falls from 240 nM to 53 nM (4.5-fold).

First: CN(CCCOc1ccc(C(=O)N2CCC(N3C(=O)CCc4ccccc43)CC2)cc1)C(=O)c1ccccc1 [Example 92, 1-[1-{4-[3-(N-Methyl-N-benzoylamino)propoxy]benzoyl}-4-piperidinyl)-3,4-dihydrocarbostyril]
Second: O=C(c1ccc(OCCCNS(=O)(=O)c2ccccc2)cc1)N1CCC(N2C(=O)CCc3ccccc32)CC1 [Example 169, 1-{1-[4-(3-Phenylsulfonylaminopropoxy)benzoyl]-4-piperidinyl}-3,4-dihydrocarbostyril]
The IC50 of the first is 7.1-fold higher: 1200 nM for the first, 170 nM for the second. The second is the more potent here.

First: COc1cc(SC)ccc1C(=O)N1CCC(N2C(=O)CCc3ccccc32)CC1 [Example 53, 1-[1-(2-Methoxy-4-methylthiobenzoyl)-4-piperidinyl]-3,4-dihydrocarbostyril]
Second: C=CCOc1cc(OC)ccc1C(=O)N1CCC(N2C(=O)CCc3ccccc32)CC1 [Example 62, 1-[1-(2-Allyloxy-4-methoxybenzoyl)-4-piperidinyl]-3,4-dihydrocarbostyril]
The IC50 of the first is 1.9-fold lower: 80 nM for the first, 150 nM for the second. The first is the more potent here.

`C=CCOCCCOc1ccc(C(=O)N2CCC(N3C(=O)CCc4ccccc43)CC2)cc1` [Example 87, 1-(1-[4-(3-Allyloxypropoxy)benzoyl]-4-piperidinyl}-3,4-dihydrocarbostyril] and `CC[S+]([O-])CCCOc1ccc(C(=O)N2CCC(N3C(=O)CCc4ccccc43)CC2)cc1` (stereo not drawn) [Example 127, 1-{1-[4-(Ethylsulfinylpropoxy)benzoyl]-4-piperidinyl}-3,4-dihydrocarbostyril] are within 1.5-fold of each other in IC50: 530 nM for the first, 610 nM for the second.

Going from `COc1ccc(C(=O)N2CCC(N3C(=O)CCc4ccccc43)CC2)c(OCCCOC(C)=O)c1` [Example 64, 1-{1-[2-(3-Acetoxypropoxy)-4-methoxybenzoyl]-piperidinyl}-3,4-dihydrocarbostyril] to `COc1ccc(C(=O)N2CCC(N3C(=O)CCc4ccccc43)CC2)c(OCCCOC(N)=O)c1` [Example 65, 1-{1-[2-(3-Carbamoyloxypropoxy)-4-methoxybenzoyl]-4-piperidinyl}-3,4-dihydrocarbostyril], the IC50 falls from 460 nM to 270 nM (1.7-fold).

`CC(=O)NCC(CCCCOc1ccc(C(=O)N2CCC(N3C(=O)CCc4ccccc43)CC2)cc1)OC(C)=O` (stereo not drawn) [Example 176, 1-{1-[4-(5-Acetoxy-6-acetylaminohexyloxy)benzoyl]-4-piperidinyl}-3,4-dihydrocarbostyril] and `NC(=O)CNC(=O)CCCCCOc1ccc(C(=O)N2CCC(N3C(=O)CCc4ccccc43)CC2)cc1` [Example 14, 1-{1-[4-(5-Carbamoylmethylaminocarbonylpentyloxy)benzoyl]-4-piperidinyl}-3,4-dihydrocarbostyril] are within 1.5-fold of each other in IC50: 130 nM for the first, 160 nM for the second.

`CN(CCc1ccccc1)CC(O)CCCCOc1ccc(C(=O)N2CCC(N3C(=O)CCc4ccccc43)CC2)cc1` (stereo not drawn) [Example 203, 1-{1-[4-(5-Hydroxy-6-[N-(2-phenylethyl)-N-methylamino]hexyloxy)benzoyl]-4-piperidinyl)-3,4-dihydrocarbostyril] and `O=C(c1ccc(OCCCCC(O)CNCc2ccccc2)cc1)N1CCC(N2C(=O)CCc3ccccc32)CC1` (stereo not drawn) [Example 170, 1-{1-[4-(5-Hydroxy-6-benzylaminohexyloxy)benzoyl]-4-piperidinyl}-3,4-dihydrocarbostyril] are within 1.5-fold of each other in IC50: 49 nM for the first, 39 nM for the second.

Compared with `O=CNCCCOc1ccc(C(=O)N2CCC(N3C(=O)CCc4ccc(F)cc43)CC2)cc1` [Example 145, 1-{1-[4-(3-Formylaminopropoxy)benzoyl]-4-piperidinyl}-7-fluoro-3,4-dihydrocarbostyril], `NC(=O)OCCCCOc1ccc(C(=O)N2CCC(N3C(=O)CCc4ccccc43)CC2)cc1` [Example 38, 1-{1-[4-(4-Carbamoyloxybutoxy)benzoyl]-4-piperidinyl}-3,4-dihydrocarbostyril] is 1.6-fold higher in IC50: 170 nM for the first, 270 nM for the second.

`Cn1ccnc1S(=O)(=O)CCCCCOc1ccc(C(=O)N2CCC(N3C(=O)CCc4ccccc43)CC2)cc1` [Example 282, 1-{1-(4-[5-(1-Methyl-2-imidazolylsulfonyl)pentyloxy)benzoyl)-4-piperidinyl}-3,4-dihydrocarbostyril] and `CC1CCN(CCCCCOc2ccc(C(=O)N3CCC(N4C(=O)CCc5ccccc54)CC3)cc2)CC1` [Example 242, 1-{1-(4-[5-(4-Methyl-1-piperidinyl)pentyloxy]benzoyl)-4-piperidinyl}-3,4-dihydrocarbostyril] are within 1.5-fold of each other in IC50: 75 nM for the first, 59 nM for the second.

Going from `O=C(c1ccc(C(F)(F)F)cc1)N1CCC(N2C(=O)CCc3ccccc32)CC1` [Example 106, 1-[1-(4-Trifluoromethylbenzoyl)-4-piperidinyl]-3,4-dihydrocarbostyril] to `O=C(c1ccc(C=NO)cc1)N1CCC(N2C(=O)CCc3ccccc32)CC1` [Example 108, 1-[1-(4-Hydroxyiminomethylbenzoyl)-4-piperidinyl]-3,4-dihydrocarbostyril], the IC50 rises from 700 nM to 1400 nM (2-fold). The first is the more potent here.

Going from `CCOc1ccc(C(=O)N2CCC(N3C(=O)CCc4cc(F)c(F)cc43)CC2)c(OC)c1` [Example 120, 6,7-Difluoro-1-[1-(2-methoxy-4-ethoxybenzoyl)-4-piperidinyl]-3,4-dihydrocarbostyril] to `CCOc1ccc(C(=O)N2CCC(N3C(=O)CCc4ccc(F)cc43)CC2)c(O)c1` [Example 155, 1-[1-(2-Hydroxy-4-ethoxybenzoyl)-4-piperidinyl]-7-fluoro-3,4-dihydrocarbostyril], the IC50 falls from 200 nM to 57 nM (3.5-fold).

First: COc1cccc(CNCC(O)CCCCOc2ccc(C(=O)N3CCC(N4C(=O)CCc5ccccc54)CC3)cc2)c1 (stereo not drawn) [Example 298, 1-{1-(4-[5-Hydroxy-6-(3-methoxybenzylamino)hexyloxy]benzoyl)-4-piperidinyl}-3,4-dihydrocarbostyril]
Second: O=C(c1ccc(OCCCCC(O)CN2CCN(Cc3ccccc3)CC2)cc1)N1CCC(N2C(=O)CCc3ccccc32)CC1 (stereo not drawn) [Example 172, 1-(1-[4-(5-Hydroxy-6-(4-benzyl-1-piperazinyl)hexyloxy]benzoyl]-4-piperidinyl)-3,4-dihydrocarbostyril.dioxalate]
The IC50 of the first is 1.5-fold higher: 65 nM for the first, 43 nM for the second. The second is the more potent here.

Compared with `CCN(CC(O)CCCCOc1ccc(C(=O)N2CCC(N3C(=O)CCc4ccccc43)CC2)cc1)CC1CCCCO1` (stereo not drawn) [Example 218, 1-{1-[4-(5-Hydroxy-6-[N-ethyl-N-(2-tetrahydropyranylmethyl)amino]hexyloxy)benzoyl]-4-piperidinyl}-3,4-dihydrocarbostyril], `O=C(c1ccc(OCCCC(O)CN2CCCCC2)cc1)N1CCC(N2C(=O)CCc3ccccc32)CC1` (stereo not drawn) [Example 188] is 1.5-fold higher in IC50: 44 nM for the first, 68 nM for the second. The first is the more potent here.

First: NC(=O)CNC(=O)CCCCCCCOc1ccc(C(=O)N2CCC(N3C(=O)CCc4ccccc43)CC2)cc1 [Example 16, 1-(1-[4-(7-Carbamoylmethylaminocarbonylheptyloxy)benzoyl]-4-piperidinyl}-3,4-dihydrocarbostyril]
Second: C=CCN1CCN(C(=O)CCCCCOc2ccc(C(=O)N3CCC(N4C(=O)CCc5ccccc54)CC3)cc2)CC1 [Example 273, 1-{1-(4-[5-(4-Allyl-1-piperazinylcarbonyl)pentyloxy]benzoyl)-4-piperidinyl}-3,4-dihydrocarbostyril]
The IC50 of the first is 2.6-fold higher: 150 nM for the first, 57 nM for the second. The second is the more potent here.

First: O=C(c1ccc(OCCCC[S+]([O-])c2nc3ccccc3[nH]2)cc1)N1CCC(N2C(=O)CCc3ccccc32)CC1 (stereo not drawn) [Example 194, 1-{1-[4-(4-(Benzimidazol-2-yl)sulfinylbutoxy)benzoyl]-4-piperidinyl}-3,4-dihydrocarbostyril]
Second: O=C(CCCCCOc1ccc(C(=O)N2CCC(N3C(=O)CCc4ccccc43)CC2)cc1)c1nc2cnccc2[nH]1 [Example 154, 1-{1-[4-(5-(Imidazo[4,5-c]pyridine-2-yl)carbonylpentyloxy)benzoyl]-4-piperidinyl}-3,4-dihydrocarbostyril]
The IC50 of the first is 1.8-fold higher: 350 nM for the first, 200 nM for the second. The second is the more potent here.

Going from `COc1ccc(C(=O)N2CCC(N3C(=O)CCc4ccc(C)cc43)CC2)c(OC)c1` [Example 81, 7-Methyl-1-[1-(2,4-dimethoxybenzoyl)-4-piperidinyl]-3,4-dihydrocarbostyril] to `COc1ccc(C(=O)N2CCC(N3C(=O)CCc4ccccc43)CC2)c(N2CCOC2=O)c1` [Example 51, 1-{1-[2-(2-Oxooxazolydine-3-yl)-4-methoxybenzoyl]-4-piperidinyl}-3,4-dihydrocarbostyril], the IC50 rises from 210 nM to 490 nM (2.3-fold).

Same assay, conditions: [H]3-Arg-vasopressin 2×10^-10 M, rat liver plasma membrane, 37° C., 10 minutes, pH 8.0; read-out: IC50

Compared with “1-{1-[4-[4-(Benzimidazol-1-yl)thiobutoxy]benzoyl]-4-piperidinyl}-3,4-dihydrocarbostyril [Example 164]”, “1-{1-[4-(6-(1-Methyl-5-oxo-3-morpholino)hexyloxy)benzoyl]-4-piperidinyl}-3,4-dihydrocarbostyril [Example 215]” is 4.6-fold lower in IC50: 780 nM for the first, 170 nM for the second.

Same assay, conditions: read-out: IC50

`CCOc1ccc(C(=O)N2CCC(n3c(=O)ccc4c(F)cc(F)cc43)CC2)c(OC)c1` [Example 175, 5,7-Difluoro-1-[1-(2-Methoxy-4-ethoxybenzoyl)-4-piperidinyl]carbostyril] gave an IC50 of 320 nM.
